Measurements: patent US20060069067A1, “Combination of an aromatase inhibitor with a bisphosphonate” (priority 2002, published 2006)

Tests used:
Format in all cases: in vivo, rat
[1] = system: letrozole-treated rats; assay: pQCT monitoring of bone loss in the proximal tibia metaphysis of rats given daily oral letrozole
Experimental: (§1) It was investigated whether bone loss induced in rats by either ovariectomy (OVX) or the aromatase inhibitor letrozole (Let) could be prevented by the bisphosphonate zoledronic acid (Zol).
(§2) Material and Methods: Adult, skeletally mature, 8-month-old female Wistar rats were assigned to the following treatment groups […]: Sham (vehicle), OVX, Let-treated, OVX +Zol and Let+Zol. Zol was injected into the tail vein as a single dose of 0.8, 4 or 20 μg/kg 3 days before OVX or before initiating daily oral dosing of Let (1 mg/kg) for 24 weeks. Changes in total and cancellous bone mineral density (BMD) and cortical thickness in the proximal tibia metaphysis were monitored non-invasively by peripheral quantitative computed tomography (pQCT) at 0, 2, 4, 8, 12, 16, 20 and 24 weeks.

[2] = system: letrozole-treated rats; assay: Compression test of the 5th lumbar vertebral body after letrozole administration
Experimental: as §2
(§3) Both tibiae, femora and lumbar vertebrae L1-L6 were harvested at necropsy in order to carry out biomechanical testing.
(§4) Mechanical properties of the 5th lumbar vertebral body were evaluated in compression after removal of the epiphyseal ends, posterior pedicle arch and spinous process on a 4 mm segment with piano-parallel ends.

[3] = system: OVX rats; assay: pQCT monitoring of bone loss in the proximal tibia metaphysis of ovariectomized rats
Experimental: as §1, §2

[4] = system: OVX rats; assay: Compression test of the 5th lumbar vertebral body after OVX; conditions: single iv 0.8, 4 or 20 μg/kg
Experimental: as §2, §3, §4

[5] = daily oral letrozole 1 mg/kg, at 24 weeks, P<0.01 vs sham
[6] = letrozole-treated rats, 4 μg/kg iv
[7] = letrozole-treated rats, highest dose (20 μg/kg iv), P<0.01 vs letrozole, NS vs sham

N#Cc1ccc(C(c2ccc(C#N)cc2)n2cncn2)cc1 [letrozole, 4-[α-(4-cyanophenyl)-1-(1,2,4-triazolyl)methyl]-benzonitrile]
change in cancellous bone mineral density (cancellous bone loss) [1, 5]: −26%
change in mean cortical thickness [1, 5]: −21%
change in total BMD [1, 5]: −13%
ultimate bone strength of 5th lumbar vertebral body ([2]; daily oral letrozole 1 mg/kg for 24 weeks, NS): decreased

O=P(O)(O)C(O)(Cn1ccnc1)P(=O)(O)O [zoledronic acid, 2-(imidazol-1yl)-1-hydroxyethane-1,1-diphosphonic acid]
duration of full protection against cancellous bone loss ([3]; highest dose (20 μg/kg iv)): 20 weeks
duration of full protection of total BMD (NS vs sham) ([3]; highest dose (20 μg/kg iv)): 24 week
protection of cortical thickness (NS vs sham at all time points) ([3]; highest dose (20 μg/kg iv), 24-week study): fully protective for the full duration of the study
cancellous bone at 24 weeks ([3]; highest dose (20 μg/kg iv), 24 weeks, NS vs sham): mild cancellous bone loss was visible
time for which cancellous bone loss was delayed (marginally but significantly) ([3]; single iv 0.8 μg/kg): 12 weeks
protective effect on mean cortical thickness ([3]; single iv 0.8 μg/kg, at 2 weeks, P<0.05 vs OVX): marginal protective effect
time for which cancellous bone mineral density was significantly better than in OVX controls ([3]; single iv 4 μg/kg): 24 weeks
time for which cortical thickness was significantly better than in OVX controls ([3]; single iv 4 μg/kg): 12 weeks
time for which cancellous bone mineral density was significantly better than in OVX controls ([3]; single iv 20 μg/kg): 24 weeks
time for which cortical thickness was significantly better than in OVX controls ([3]; single iv 20 μg/kg): 24 weeks
time for which bone loss (total BMD) was delayed significantly ([3]; single iv injection 0.8 μg/kg 3 days before OVX): 8 weeks
time for which bone loss (total BMD) was delayed significantly ([3]; single iv injection 4 μg/kg): 20 weeks
time for which bone loss (total BMD) was delayed significantly ([3]; single iv injection 20 μg/kg): 24 weeks
time for which cancellous bone loss was fully prevented [1, 6]: 8 weeks
time for which cancellous bone mineral density remained significantly higher than in letrozole-treated rats [1, 6]: 24 weeks
time for which cortical thinning was fully prevented [1, 6]: 4 weeks
week until which cortical thickness stayed significantly above the letrozole control ([1]; letrozole-treated rats, 4 μg/kg iv, P<0.01 vs letrozole): 20 week
duration of full protection of total BMD (NS vs sham) ([1]; letrozole-treated rats, highest dose (20 μg/kg iv)): 24 week
duration of full protection against cancellous bone loss [1, 7]: 24 weeks
time for which cortical thinning was fully protected against [1, 7]: 24 weeks
time for which bone loss (total BMD) was delayed (marginally but significantly) ([1]; letrozole-treated rats, single iv 0.8 μg/kg): 4 weeks
time for which cancellous bone loss was delayed (marginally but significantly) ([1]; letrozole-treated rats, single iv 0.8 μg/kg, P<0.05 vs letrozole): 8 weeks
protective effect on mean cortical thickness ([1]; letrozole-treated rats, single iv 0.8 μg/kg, at 2 weeks, P<0.05 vs letrozole): marginal but significant protective effect
time for which bone loss (total BMD) was delayed significantly ([1]; letrozole-treated rats, single iv 4 μg/kg, P<0.01 vs letrozole): 24 weeks
time for which bone loss (total BMD) was delayed significantly ([1]; letrozole-treated rats, single iv 20 μg/kg, P<0.01 vs letrozole): 24 weeks
duration of full protection against Let-induced bone loss ([1]; rats, dose of 20 μg/kg): at least 24 weeks
protection against cancellous bone loss, cortical thinning and reduction of bone strength induced by daily oral Let ([1]; rats, summary in discussion): dose-dependently protects
protection against bone loss in rats treated with letrozole ([1]; summary statement): long term protection against bone loss
ultimate bone strength of 5th lumbar vertebral body [4]: dose-dependently improved
ultimate bone strength of 5th lumbar vertebral body ([2]; letrozole-treated rats, single iv 0.8, 4 or 20 μg/kg, compression): dose-dependently improved
